Results on 27 molecules are retold here after US11192859B2, “Quinoline compounds as modulators of RAGE activity and uses thereof” (NEW YORK UNIVERSITY, priority 2016, dated 2021).

The Kd is the concentration at which binding is half-saturated.

One experiment deals with ctRAGE (Homo sapiens (Human), UniProt Q15109). The experiment in a line: Fluorescence binding assay (native tryptophan fluorescence titration). The conditions noted are these: 10 nM ctRAGE, pH 7.0, 5% DMSO; for Kd: read-out: Fluorescent Binding Assay, Kd. Set-up: key to Fluorescent Binding Assay, Kd (nM): ***: No binding. Here is the method:
Native tryptophan fluorescence experiments were conducted using a Horiba Jobin Yvon Fluorolog spectrofluorometer. 1 mM of compound was dissolved in 10 mM phosphate buffer [pH 7.0] and 50% DMSO. ctRAGE was bacterially expressed and purified as described^1. 10 nM ctRAGE solution was individually titrated from 0.1 nM-100 μM with the compounds in 100 μL of 10 mM phosphate buffer [pH 7.0] and 5% DMSO. The excitation and emission wavelengths were 280 nm and 352 nm, respectively. Dissociation constants, Kd, were estimated from the changes in peak fluorescence intensities as a function of the free compound concentration by using Prism 5 software (GraphPad). Data were fit to the equation, (F−F0)/Fmax=[compound]/(Kd+[compound]) where F is the fluorescence intensity at a given compound concentration, F0 is the fluorescence intensity of the blank, and Fmax is the maximum fluorescence intensity.

For experiment [1], the system named is Murine vascular smooth muscle cells (SMCs). The experiment in a line: Smooth muscle cell migration assay (wounding assay), RAGE ligand CML-AGE. It counts as cell-based. Also noted: key to SMC migration Assay, IC50 (nM): ****: No inhibition or bad fit or inhibition out of range. The conditions noted are these: CML-AGE 10 μg/ml, 7 h; for IC50: Mus musculus, read-out: SMC migration Assay, IC50. As to the method: FIG. 4 depicts effects of compounds on RAGE ligand-stimulated migration of murine aortic smooth muscle cells (SMCs). Migration of SMCs after incubation with the indicated RAGE inhibitor compounds or the parent molecule (“C12”) quinolone from the Chem-Bridge library was assessed. SMCs were grown to confluence and serum-starved overnight. The following morning, serum free media was removed and compounds were added (1 μM). Immediately following the addition of compounds, the monolayer was wounded using a p200 pipette tip and allowed to incubate for 1.5 h. Following this incubation, compounds were removed and fresh media containing RAGE ligand, CML-AGE (10 μg/ml), was added for 7 h. All images were measured at TO and T7 h and an area ingrowth of effective migrating cells was calculated. Each compound was tested in three independent wells and each well was photographed in 3 separate locations for a total of 9 images used in assessing area ingrowth. Error bars represent SEM. * indicates p<0.05 comparing CML-AGE vs. CML-AGE and compound treatment and # indicates p<0.001 comparing CML-AGE vs. serum free medium (SFM) vehicle. Note that SFM is the vehicle into which the RAGE ligand, CML-AGE, is added for testing the effect of RAGE ligand.
Murine vascular smooth muscle cells (SMCs) were cultured from the aortas of 10-week old male mice using a modification of the procedure of Travo and Barret^17. SMCs were cultured following an explant protocol in accordance with institutional guidelines. Wild-type murine aortic vascular SMCs were isolated and used between passages 8 to 12. Migration in response to the RAGE ligand CML-AGE (CML, 10 μg/ml) or a general effector, not a RAGE ligand, PDGF-BB, 10 ng/ml (R&D systems, Minneapolis, Minn., USA) was assessed with a wounding assay. Cells were grown to confluence in 12-well plates and starved overnight. The following morning, serum free media was removed and compounds were added. Immediately following the addition of compounds, the monolayer was wounded using a p200 pipette tip and the compounds were allowed to incubate for 1.5 h. Following this incubation, all compounds were removed and fresh media containing RAGE ligand or general effector, PDGF-BB, was added for 7 h. Cells were maintained at 37° C. and 5% CO2. Images were obtained at TO and T7. Each image was measured and an area ingrowth of effective migrating cells was calculated. The SMC migration assay data for representative compounds, Compounds 229 and 247, is depicted in FIGS. 5a and 5b, respectively.

ctRAGE, sequence (Q15109 364-404): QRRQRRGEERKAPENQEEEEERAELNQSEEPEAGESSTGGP

For the molecule `CC(=O)Nc1ccc(-c2cc(CN3CCOCC3)c3ccc(F)cc3n2)cc1F` [Compound 250, N-(2-fluoro-4-(7-fluoro-4-(morpholinomethyl)quinolin-2-yl)phenyl)acetamide], the Kd on ctRAGE is 81 nM. The IC50 in experiment [1] was 40 nM.

With `COCC(=O)Nc1ccc(-c2cc(CN3CCOCC3)c3ccccc3n2)cc1` [Compound 220, 2-methoxy-N-(4-(4-(morpholinomethyl)quinolin-2-yl)phenyl)acetamide], the Kd on ctRAGE stood at 22 nM. For the same molecule, the IC50 in experiment [1] stood at 300 nM.

Turning to `CC(=O)Nc1ccc(-c2cc(CN(C)CCO)c3ccccc3n2)cc1` [Compound 232, N-(4-(4-(((2-hydroxyethyl)(methyl)amino)methyl)quinolin-2-yl)phenyl)acetamide], the “Fluorescent Binding Assay, Kd (nM)” value at ctRAGE is “***”. In experiment [1], the “SMC migration Assay, IC50 (nM)” value is “****”. For the molecule `CC(=O)Nc1ccc(-c2cc(CNCCO)c3ccccc3n2)cc1` [Compound 231, N-(4-(4-(((2-hydroxyethyl)amino)methyl)quinolin-2-yl)phenyl)acetamide], at ctRAGE, the Kd came out at 47 nM. For the same molecule, the IC50 in experiment [1] is 18 nM. For `CC(=O)Nc1ccc(-c2cc(CN3CCOCC3)c3ccc(C#N)cc3n2)cc1Cl` [Compound 260, N-(2-chloro-4-(7-cyano-4-(morpholinomethyl)quinolin-2-yl)phenyl)acetamide], the IC50 in experiment [1] is 14 nM. In the case of `CC(=O)Nc1ccc(-c2cc(CN3CCOCC3)c3ccc(F)cc3n2)cc1C#N` [Compound 252, N-(2-cyano-4-(7-fluoro-4-(morpholinomethyl)quinolin-2-yl)phenyl)acetamide], the Kd at ctRAGE worked out at 29 nM. For the same molecule, the IC50 in experiment [1] was 61 nM.

Take `CCCCNCc1cc(-c2ccc(NC(C)=O)cc2)nc2ccccc12` [Compound 237, N-(4-(4-((butylamino)methyl)quinolin-2-yl)phenyl)acetamide]: at ctRAGE, the “Fluorescent Binding Assay, Kd (nM)” value is listed as “***”. In experiment [1], the “SMC migration Assay, IC50 (nM)” value is recorded as “****”. On to `CC(=O)Nc1ccc(-c2cc(CN(C)CCN(C)C)c3ccccc3n2)cc1` [Compound 240, N-(4-(4-(((2-(dimethylamino)ethyl)(methyl)amino)methyl)quinolin-2-yl)phenyl)acetamide], for which the “Fluorescent Binding Assay, Kd (nM)” value at ctRAGE is “***”. For the same molecule, in experiment [1], the “SMC migration Assay, IC50 (nM)” value is on record as “****”. In the case of `CC(=O)Nc1ccc(-c2cc(CN3CCOCC3)c3ccc(C#N)cc3n2)cc1F` [Compound 259, N-(4-(7-cyano-4-(morpholinomethyl)quinolin-2-yl)-2-fluorophenyl)acetamide], the “SMC migration Assay, IC50 (nM)” value in experiment [1] is given as “****”. Turning to `CC(=O)Nc1ccc(-c2cc(CN3CCOCC3)c3ccccc3n2)cc1F` [Compound 214, N-(2-fluoro-4-(4-(morpholinomethyl)quinolin-2-yl)phenyl)acetamide], the Kd on ctRAGE came to 34 nM. The IC50 in experiment [1] stood at 4 nM. As for `CC(=O)Nc1ccc(-c2cc(CN3CCOCC3)c3ccc(C#N)cc3n2)cc1C#N` [Compound 261, N-(2-cyano-4-(7-cyano-4-(morpholinomethyl)quinolin-2-yl)phenyl)acetamide], in experiment [1], the IC50 was 1400 nM. With `COCCNCc1cc(-c2ccc(NC(C)=O)cc2)nc2ccccc12` [Compound 233, N-(4-(4-(((2-methoxyethyl)amino)methyl)quinolin-2-yl)phenyl)acetamide], the “SMC migration Assay, IC50 (nM)” value in experiment [1] is recorded as “****”. Regarding `CC(=O)Nc1ccc(-c2cc(CN3CCOCC3)c3ccc(F)cc3n2)cc1` [Compound 225, N-(4-(7-fluoro-4-(morpholinomethyl)quinolin-2-yl)phenyl)acetamide], the Kd at ctRAGE was found to be 122 nM. Further, in experiment [1], the IC50 amounted to 44 nM. Turning to `CC(=O)Nc1ccc(-c2cc(CN3CCOCC3)c3ccccc3n2)cc1O` [Compound 217, N-(2-hydroxy-4-(4-(morpholinomethyl)quinolin-2-yl)phenyl)acetamide], the “Fluorescent Binding Assay, Kd (nM)” value on ctRAGE is reported as “***”. For the same molecule, in experiment [1], the “SMC migration Assay, IC50 (nM)” value is on record as “****”.

With `CCC(=O)Nc1ccc(-c2cc(CN3CCOCC3)c3ccccc3n2)cc1` [Compound 223, N-(4-(4-(morpholinomethyl)quinolin-2-yl)phenyl)propionamide], the Kd at ctRAGE turned out to be 72 nM. With `Cc1nc2ccc(-c3cc(CN4CCOCC4)c4ccccc4n3)cc2[nH]1` [Compound 248, 4-((2-(2-methyl-1H-benzo[d]imidazol-6-yl)quinolin-4-yl)methyl)morpholine], the “Fluorescent Binding Assay, Kd (nM)” value on ctRAGE is on record as “***”. Also, in experiment [1], the “SMC migration Assay, IC50 (nM)” value is given as “****”. In the case of `CC(=O)Nc1ccc(-c2cc(CN3CCOCC3)c3ccccc3n2)cc1C#N` [Compound 218, N-(2-cyano-4-(4-(morpholinomethyl)quinolin-2-yl)phenyl)acetamide], the dissociation constant (Kd) at ctRAGE came out at 80 nM. The IC50 in experiment [1] stood at 133 nM.

`CC(=O)Nc1ccc(-c2cc(CN3CCOCC3)c3ccc(C)cc3n2)cc1` [Compound 227, N-(4-(7-methyl-4-(morpholinomethyl)quinolin-2-yl)phenyl)acetamide]: the Kd at ctRAGE was determined as 10 nM. In addition, the “SMC migration Assay, IC50 (nM)” value in experiment [1] is reported as “****”. `COc1ccc2c(CN3CCOCC3)cc(-c3ccc(NC(C)=O)c(Cl)c3)nc2c1` [Compound 257, N-(2-chloro-4-(7-methoxy-4-(morpholinomethyl)quinolin-2-yl)phenyl)acetamide]: in experiment [1], the IC50 turned out to be 1500 nM.

Turning to `CCCNCc1cc(-c2ccc(NC(C)=O)cc2)nc2ccccc12` [Compound 235, N-(4-(4-((propylamino)methyl)quinolin-2-yl)phenyl)acetamide], on ctRAGE, the Kd came out at 76 nM. The IC50 in experiment [1] is 17 nM. For `CC(C)C(=O)Nc1ccc(-c2cc(CN3CCOCC3)c3ccccc3n2)cc1` [Compound 224, N-(4-(4-(morpholinomethyl)quinolin-2-yl)phenyl)isobutyramide], on ctRAGE, the dissociation constant (Kd) was 32 nM. In addition, the IC50 in experiment [1] stood at 99 nM.

`Cc1nc2ccc(-c3cc(CN4CCOCC4)c4ccccc4n3)cc2o1` [Compound 249, 2-methyl-6-(4-(morpholinomethyl)quinolin-2-yl)benzo[d]oxazole]: at ctRAGE, the “Fluorescent Binding Assay, Kd (nM)” value is given as “***”. In addition, in experiment [1], the “SMC migration Assay, IC50 (nM)” value is “****”. For the molecule `CCCCN(C)Cc1cc(-c2ccc(NC(C)=O)cc2)nc2ccccc12` [Compound 238, N-(4-(4-((butyl(methyl)amino)methyl)quinolin-2-yl)phenyl)acetamide], at ctRAGE, the Kd turned out to be 16 nM. In addition, the IC50 in experiment [1] was 0.08 nM. Consider `COc1ccc2c(CN3CCOCC3)cc(-c3ccc(NC(C)=O)c(C#N)c3)nc2c1` [Compound 258, N-(2-cyano-4-(7-methoxy-4-(morpholinomethyl)quinolin-2-yl)phenyl)acetamide], for which the IC50 in experiment [1] stood at 323 nM. As to `CNCCN(C)Cc1cc(-c2ccc(NC(C)=O)cc2)nc2ccccc12` [Compound 242, N-(4-(4-((methyl(2-(methylamino)ethyl)amino)methyl)quinolin-2-yl)phenyl)acetamide], the Kd on ctRAGE was found to be 8 nM. Also, the IC50 in experiment [1] is 44 nM. For `CC(=O)Nc1ccc(-c2cc(CN3CCOCC3)c3ccc(F)cc3n2)cc1Cl` [Compound 251, N-(2-chloro-4-(7-fluoro-4-(morpholinomethyl)quinolin-2-yl)phenyl)acetamide], the Kd at ctRAGE turned out to be 168 nM. The “SMC migration Assay, IC50 (nM)” value in experiment [1] is “****”. As for `CCOc1ccc2c(CN3CCOCC3)cc(-c3ccc(NC(C)=O)c(F)c3)nc2c1` [Compound 262, N-(4-(7-ethoxy-4-(morpholinomethyl)quinolin-2-yl)-2-fluorophenyl)acetamide], the IC50 in experiment [1] came out at 2900 nM.
